Test results reported in patent US6479504B1, “Antagonism of immunostimulatory CpG-oligonucleotides by 4-aminoquinolines and other weak bases” (The University of Iowa Research Foundation, priority 1999, dated 2002).
Where two headings read alike, the source gives them in different places. Each block holds one compound with its values, some of them ahead of it.

How the values were obtained:
[1] = system: CpG-ODN effect on thymidine uptake by WEHI 231 B-cells; assay: Inhibition of CpG-ODN effect on thymidine uptake by WEHI 231 B-cells treated with anti-surface IgM; format: cell-based, murine
Source text: The ability of analogs to inhibit an immunostimulatory effect of CpG-ODN was examined. This assay measures the reversal of the protection by CpG-ODN against surface IgM induced killing of WEHI 231 cells.

duplex DNA = conditions: cited from earlier work
quadruplex DNA = assay: Quadruplex DNA stabilization; format: binding
Source text: Since nucleic acids are involved and several compounds of this study have been shown previously to strongly stabilize a triple-helix DNA structure, it was hypothesized initially that stabilization of the triple helix complex is part of the mechanism. […] In addition, compound 1 binds weakly to RNA (Wilson et al., 1993).

triple-helix DNA = conditions: cited from earlier work
[2] = experimental, ring nitrogen of the quinoline; taken from Strekowski et al., J Med. Chem. 1996; cited from earlier work
WEHI 231 cells [3] = assay: Monensin effect on cellular concentration of quinacrine; format: cell-based, murine; conditions: Mus musculus, WEHI231, 0.5 h; 1 uM quinacrine, 30 min; read-out: Monensin concentration for half maximal inhibition of quinacrine uptake and loss of quinacrine from preloaded cells
Procedure: FIG. 5. Monensin: Cells were incubated with 1 uM quinacrine 17 or compound 227 for 30 min. Monensin at the indicated concentration was added either at the same time as the analog or at the end of the 30 min incubation, and the cellular concentration of the analog was determined by fluorescence.
Both effects were half maximal at a monensin concentration of about 1 μM (FIG. 5). Similar results were obtained with other analogs.

CpG ODN 1760 = assay: DNA thermal melting at 260 nm; format: binding; conditions: 0.3 moles of compound per base, MES with 150 mM KCl, pH 4.4
Procedure: Thermal melting studies were conducted at 260 nm with a Cary spectrophotometer interfaced to a microcomputer. A thermistor fixed into a reference cuvette was used to monitor the temperature. The DNA oligomer was added to 1 mL of buffer (MES with 150 mM KCl, pH 4.4) in 1 cm path length reduced-volume quartz cells. Studies were generally conducted a at concentration of 5×10-^5M bases. […].
Structural nucleic acids with duplex or single-stranded folded conformations generally give sigmoid thermal melting curves characteristic of thermal unfolding of the structures. This unfolding results in a change in the UV spectrum. […]

WEHI 231 cells [4] = conditions: mouse
Procedure: Cellular uptake of analogs was estimated by fluorescence. […] The cells were pelleted by centrifugation, and the fluorescence of the supernatant was measured after dilution with the appropriate buffer. The cell pellet was extracted with 1 ml Catrimox-14 (Iowa Biotechnology Corp., Coralville, La.), and the insoluble nucleic acids were removed by centrifugation (16,000×g, 10 min). The resulting extract was diluted with the appropriate buffer, and its fluorescence was measured. […] The fluorescence intensity and spectra were determined with a Farrand Manual Spectrofluorometer at three pH's (3.4, 7.4, 10.0). Subsequent measurements of fluorescence were performed at pH giving the highest yield (Table I).
Standard curves of the fluorescence intensity of each analog in cell culture medium and in the cell extract buffer were prepared, measurements being taken at the pH listed in the table. To examine the uptake of the analogs by cells, WEHI 231 cells were incubated with a range of concentrations of the analogs, and measured the concentration of the analog remaining in the supernatant and the amount of analog in the extract of a cell pellet using the standard curves.
The sources were a=Sigma Chemical Co., b=National Cancer Institute, c=Synthesized by LS, d=Synthesized by FMI. […] ND, not determined.

WEHI 231 cells [5] = assay: Uptake of Texas Red-labeled CpG-ODN 1760 by flow cytometry; format: cell-based, murine; conditions: 5 ug/ml Texas Red CpG-ODN 1760
Procedure: FIG. 6. […] The cells were then washed three times, and fixed. The cellular uptake of fluorescent CpG-ODN was estimated by flow cytometry. […] .
After incubation with the additions indicated, the cells were centrifuged and resuspended three times into Hanks buffered salt solution at 37° to remove surface bound ODN, and then resuspended and fixed in 2% paraformaldehyde for analysis in the University of-Iowa Flow Cytometry Facility. 10,000 events were recorded using a Coulter EPICS 753 at 488/600 nm, gating out dead cells. The mean cellular fluorescence was recorded.
The effect of chloroquine and non-fluorescent analogs on the uptake of Texas Red-labeled CpG-ODN 1760 was investigated. […] . Flow cytometry measures cell-associated fluorescence because signals derived from dead cells (which take up ODN avidly, (Tonkinson and Stein, 1994)) are easily gated out of the analysis.

WEHI 231 cells [6] = conditions: 1 μM
WEHI 231 cells [7] = assay: Confocal microscopy of subcellular distribution of internalized CpG-ODN
RNA = conditions: cited from earlier work
[8] = concentration required for 50% blockage of the ability of CpG-ODN to rescue WEHI 231 cells from anti-surface IgM-induced cell death, read-out: 50% Efficacy
[9] = Mus musculus, WEHI231, concentration for half-maximal inhibition of CpG-ODN effect on thymidine uptake by WEHI 231 B-cells in presence of anti-sIgM, estimated experimental error ± 15%, read-out: EC50
[10] = Mus musculus, WEHI231, concentration required for 50% blockage of the ability of CpG-ODN to rescue WEHI 231 cells from anti-surface IgM-induced cell death, read-out: 50% Efficacy
[11] = concentration for half-maximal inhibition of CpG-ODN effect on thymidine uptake by WEHI 231 B-cells in presence of anti-sIgM, estimated experimental error ± 15%, read-out: EC50

SMILES: CN(C)CCCCCCNc1cc(-c2ccc3ccccc3c2)nc2ccccc12 [OZ-123]
- EC50 [1, 8]: 5.9 nM

SMILES: Oc1c(CN2CCCCC2)cc(Nc2cc(-c3ccc4ccccc4c3)nc3ccccc23)cc1CN1CCCCC1 [Compound 30]
- EC50 [1, 9]: 1.5 nM

SMILES: CCN(CCO)CCCC(C)Nc1ccnc2cc(Cl)ccc12 (centres unmarked) [Hydroxychloroquine, reference compound]
- EC50 [1, 10]: 407 nM

SMILES: CCCCN(CCCC)CCCNc1cc(-c2ccc3ccccc3c2)nc2ccccc12 [MHQ-6]
- EC50 [1, 8]: 16.3 nM

SMILES: CN(C)CCNc1cc(-c2cccc3ccccc23)nc2ccccc12 [Compound 3]
- Binding to duplex DNA (duplex DNA): does not bind at all
- Stabilization of quadruplex DNA (quadruplex DNA): do not stabilize
- Triplex DNA stabilization / binding (triple-helix DNA): does not promote triplex DNA formation and does not bind to the triple DNA structure
- EC50 [1, 11]: 39.8 nM

SMILES: COc1ccc2nc3cc(Cl)ccc3c(NC3CCCCC3Nc3ccnc4cc(Cl)ccc34)c2c1 (racemic) [Ism 9]
- EC50 [1, 8]: 105 nM

SMILES: CN(C)CCNc1cc(-c2ccc3ccccc3c2)nc2ccccc12 [LS-8]
- EC50 [1, 8]: 9.5 nM

SMILES: COc1ccc2nc3cc(Cl)ccc3c(NC3CCCCC3Nc3c4ccc(Cl)cc4nc4ccc(OC)cc34)c2c1 (racemic) [Ism 16]
- EC50 [1, 8]: 14.5 nM

SMILES: C=C[C@H]1C[N@@]2CC[C@H]1C[C@H]2[C@H](O)c1ccnc2ccc(OC)cc12 [Quinine, reference compound]
- EC50 [1, 10]: 23000 nM

SMILES: CC(CCCC(C)(C)O)Nc1cc(-c2ccc3ccccc3c2)nc2ccccc12 (centres unmarked) [Compound 21]
- EC50 [1, 11]: 1150 nM

SMILES: CC[C@@]1([C@@H]2O[C@@H]([C@H]3O[C@@](O)(CO)[C@H](C)C[C@@H]3C)C[C@@H]2C)CC[C@H]([C@]2(C)CC[C@]3(C[C@H](O)[C@@H](C)[C@@H]([C@@H](C)[C@@H](OC)[C@H](C)C(=O)O)O3)O2)O1 [Monensin]
- EC50 (WEHI 231 cells [3]): ~1000 nM

SMILES: CN(C)CCNC(=O)c1cc(-c2ccc3ccccc3c2)nc2ccccc12 [Compound 10]
- pKa [2]: 2.9
- EC50 [1, 11]: > 10000 nM

SMILES: CCN(CC)CCCC(C)Nc1c2ccc(Cl)cc2nc2ccc(OC)cc12 (centres unmarked) [Quinacrine]
- Change in the thermal melting curve of the free CpG-ODN (CpG ODN 1760): did not cause any significant change
- Cellular uptake ratio (WEHI 231 cells [4]): 601
- EC50 [1, 10]: 10.2 nM

SMILES: Oc1c(CN2CCOCC2)cc(Nc2cc(-c3ccc4ccccc4c3)nc3ccccc23)cc1CN1CCOCC1 [Compound 29]
- EC50 [1, 9]: 10 nM

SMILES: CCN(CC)CCCC(Nc1c2ccc(Cl)cc2nc2ccc(OC)cc12)c1ccncc1 (centres unmarked) [10591-T/2, reference compound]
- EC50 [1, 8]: 30.2 nM

SMILES: O=C(CCCO)NCCCN1CCN(CCCNc2cc(-c3ccc4ccccc4c3)nc3ccccc23)CC1 [Compound 25]
- EC50 [1, 11]: 25.1 nM

SMILES: CC(C)(C)OC(=O)NCCNc1cc(-c2ccc3ccccc3c2)nc2ccccc12 [Compound 20]
- EC50 [1, 11]: 570 nM

SMILES: CCN(CC)CCCC(C)Nc1ccnc2cc(Cl)ccc12 (centres unmarked) [Chloroquine, chloroquine]
- Influence on CpG-ODN uptake (WEHI 231 cells [5]): no significant influence
- Increase in the pH of CpG-ODN-containing compartment (WEHI 231 cells [6]): less than 0.01 pH units
- Change in the thermal melting curve of the free CpG-ODN (CpG ODN 1760): did not cause any significant change
- Influence on subcellular distribution of internalized CpG-ODN (WEHI 231 cells [7]): did not influence
- Suppression of CpG-ODN responses ([1]; 1 μM): completely suppresses

SMILES: OCCOCCNc1cc(-c2ccc3ccccc3c2)nc2ccccc12 [Compound 23]
- EC50 [1, 11]: 330 nM

Further lines, with some results ahead:

- EC50 [1, 11]: 12.3 nM
SMILES: Cc1ccc(-c2cc(NCCN(C)C)c3ccccc3n2)cc1 [Compound 4]

- EC50 [1, 11]: 11 nM
SMILES: CN(C)CCNc1cc(-c2ccc3ccc4ccccc4c3c2)nc2ccccc12 [Compound 2]

- EC50 [1, 11]: 5.9 nM
SMILES: CN(C)CCCCCCNc1cc(-c2ccc3ccccc3c2)nc2ccccc12 [Compound 16]

- EC50 [1, 11]: 11 nM
SMILES: CN(C)CCCNc1cc(-c2ccc3ccccc3c2)nc2ccccc12 [Compound 13]

- EC50 [1, 11]: 2400 nM
SMILES: CN(C)CCSc1cc(-c2ccc3ccccc3c2)nc2ccccc12 [Compound 9]
- pKa [2]: 4.4

- EC50 [1, 11]: 316 nM
SMILES: CN(C)CCCCNc1ccnc2ccccc12 [Compound 14]

- EC50 [1, 11]: 6.5 nM
SMILES: CN(C)CCNc1cc(/C=C/c2ccccc2)nc2ccccc12 [Compound 5]

- EC50 [1, 11]: > 10000 nM
SMILES: CCCCc1ccc(Nc2cc(-c3ccc4ccccc4c3)nc3ccccc23)cc1 [Compound 26]

- EC50 [1, 11]: 4 nM
SMILES: CN(C)CCCCNc1cc(-c2ccc3ccccc3c2)nc2ccccc12 [Compound 15]

- EC50 [1, 9]: 320 nM
SMILES: Oc1ccc(Nc2cc(-c3ccc4ccccc4c3)nc3ccccc23)cc1 [Compound 28]

- EC50 [1, 11]: 510 nM
SMILES: OCCc1ccc(Nc2cc(-c3ccc4ccccc4c3)nc3ccccc23)cc1 [Compound 27]

- EC50 [1, 11]: 4400 nM
SMILES: CN(C)CCCNc1ccnc2ccccc12 [Compound 11]

- EC50 [1, 11]: 170 nM
SMILES: OCCCCCCNc1cc(-c2ccc3ccccc3c2)nc2ccccc12 [Compound 24]

- EC50 [1, 11]: 416 nM
SMILES: CN(C)CCN(C)c1cc(-c2ccc3ccccc3c2)nc2ccccc12 [Compound 7]
- pKa [2]: 6.2

- EC50 [1, 11]: 11.5 nM
SMILES: Cc1ccc(-c2cc(NCCCN(C)C)c3ccccc3n2)cc1 [Compound 12]

- EC50 [1, 11]: 1000 nM
SMILES: CC(Nc1cc(-c2ccc3ccccc3c2)nc2ccccc12)C(O)c1ccccc1 (centres unmarked) [Compound 22]

- EC50 [1, 9]: 0.24 nM
SMILES: CN1CCN(Cc2cc(Nc3cc(-c4ccc5ccccc5c4)nc4ccccc34)cc(CN3CCN(C)CC3)c2O)CC1 [Compound 32]

- EC50 [1, 11]: 155 nM
SMILES: CN(C)CCNc1cc(-c2ccc(C(F)(F)F)cc2)nc2ccccc12 [Compound 6]

- EC50 [1, 9]: 1.2 nM
SMILES: Oc1c(CN2CCCC2)cc(Nc2cc(-c3ccc4ccccc4c3)nc3ccccc23)cc1CN1CCCC1 [Compound 31]

- EC50 [1, 11]: 9.1 nM
SMILES: CN(C)CCNc1cc(-c2ccc3ccccc3c2)nc2ccccc12 [Compound 1]
- pKa [2]: 7.1
- Binding to duplex DNA (duplex DNA): binds weakly
- Stabilization of quadruplex DNA (quadruplex DNA): do not stabilize
- Triplex DNA stabilization / binding (triple-helix DNA): one of the best triplex DNA stabilizing agents known to date
- Binding to RNA (RNA): binds weakly
